In US9296694B2, “Azacyclic compounds” (ACADIA Pharmaceuticals Inc., priority 2000, dated 2016):

The compounds below were run on DOI-induced head twitches in mice (assay: Observation for head twitches in DOI-treated mice). Conditions: statistically significant reduction in head twitching score; DOI-treated mice; 0.1-30 mg/kg subcutaneous injection.
Type: in vivo
Text: Instruments) were used for rat experiments (details on startle apparatus and measures, see Male Non-Swiss Albino mice and male Sprague-Dawley rats (Harlan Sprague-Dawley) were housed (4 mice/cage; 2 rats/cage) in rooms with temperature and humidity controlled and water and food (Harlan Teklad) freely available. Mice were kept on a 12-hr light:dark cycle, whereas rats were kept on a 12-hr reverse light:dark cycle. For locomotor and observation experiments in mice, plastic 20×20×30 cm activity cages were equipped with photocell beams (AccuScan Instruments). Startle chambers (San Diego Instruments) were used for rat experiments (for details on startle apparatus and measures, see Mansbach et al., (1988) Psychopharmacology 94:507-14).
Mice were treated with 2.5 mg/kg DOI i.p. Five min later, mice were treated with AC-90179 s.c. and placed into activity cages. Ten min later, mice were observed using a repeated sampling technique. […] Each dose combination was tested in a separate group of animals (n=8) and the experimenter was blind to drug conditions. Head twitch scores were averaged followed by analysis of variance (ANOVA) and post-hoc Dunnett's t-test comparisons.
The effect of various compounds on head twitch behavior in mice treated with DOI was observed as described in Example 139. Animals received 0.1-30 mg/kg of the compound indicated via subcutaneous injection. MED indicates the minimum effective dose at which a statistically significant reduction in head twitching score (described above) was observed. MED=minimum effective dose in vivo.

SMILES	MED (minimum effective dose in vivo)
COc1ccc(CC(=O)N(Cc2ccc(C)cc2)C2CCN(Cc3ccccc3)CC2)cc1.Cl [Compound 26HCH17, N-((4-Methylphenyl)methyl)-N-(1-(phenylmethyl)piperidin-4-yl)-4-methoxyphenylacetamide hydrochloride]	30 mg/kg
COc1ccc(CC(=O)N(Cc2ccc(C)cc2)C2CCN(CC3CCCCC3)CC2)cc1 [Compound 42ELH45, 2-(4-Methoxyphenyl)-N-(4-methylbenzyl)-N-(1-cyclohexylmethylpiperidin-4-yl)acetamide]	30 mg/kg
COc1ccc(CC(=O)N(Cc2ccc(C)cc2)C2CCN(C3CCCC3)CC2)cc1 [Compound 42ELH75, 2-(4-Methoxyphenyl)-N-(4-methylbenzyl)-N-(1-cyclopentylpiperidin-4-yl)acetamide]	≦10 mg/kg
CCN1CCC(N(Cc2ccc(C)cc2)C(=O)Cc2ccc(OC)cc2)CC1 [Compound 42ELH80, 2-(4-Methoxyphenyl)-N-(4-methylbenzyl)-N-(1-ethylpiperidin-4-yl)acetamide]	≦10 mg/kg
COc1ccc(CC(=O)N(Cc2ccc(Cl)cc2)C2CCN(C(C)C)CC2)cc1 [Compound 42ELH90, 2-(4-Methoxyphenyl)-N-(4-chlorbenzyl)-N-(1-isopropylpiperidin-4-yl)acetamide]	~10 mg/kg
Cc1ccc(CN(C(=O)Cc2ccc(Cl)cc2)C2CCN(C(C)C)CC2)cc1 [Compound 47AKU-7, 2-(4-Chlorophenyl)-N-(4-methylbenzyl)-N-(1-isopropylpiperidin-4-yl)acetamide]	≦10 mg/kg
Cc1ccc(CN(C(=O)Cc2ccc(Cl)cc2)C2CCN(C)CC2)cc1 [Compound 47AKU-8, 2-(4-Chlorophenyl)-N-(4-methylbenzyl)-N-(1-methylpiperidin-4-yl)-acetamide]	≦10 mg/kg
Cc1ccc(CN(C(=O)Cc2ccc(Cl)cc2)C2CCN(C3CCCC3)CC2)cc1 [Compound 47AKU-11, 2-(4-Chlorophenyl)-N-(4-methylbenzyl)-N-(1-cyclopentylpiperidin-4-yl)-acetamide]	~10 mg/kg
CCN1CCC(N(Cc2ccc(C)cc2)C(=O)Cc2ccc(Cl)cc2)CC1 [Compound 47AKU-12, 2-(4-Chlorophenyl)-N-(4-methylbenzyl)-N-(1-ethylpiperidin-4-yl)acetamide]	≦10 mg/kg
Cc1ccc(CN(C(=O)Cc2ccccc2)C2CCN(C)CC2)cc1 [Compound 47AKU-13, 2-Phenyl-N-(4-methylbenzyl)-N-(1-methylpiperidin-4-yl)-acetamide]	≦10 mg/kg
Cc1ccc(CN(C(=O)Cc2ccc(F)cc2)C2CCN(C)CC2)cc1 [Compound 47AKU-14, 2-(4-Flourophenyl)-N-(4-methylbenzyl)-N-(1-methylpiperidin-4-yl)-acetamide]	≦10 mg/kg
Cc1ccc(CN(C(=O)Cc2ccc(Cl)cc2)C2CCN(CCO)CC2)cc1 [Compound 47AKU-18, 2-(4-Chlorophenyl)-N-(4-methylbenzyl)-N-(1-(2-hydroxyethyl)-piperidin-4-yl)-acetamide]	≧10 mg/kg
Cc1ccc(CN(C(=O)Cc2ccc(Cl)cc2)C2CCN(C3CCC3)CC2)cc1 [Compound 47AKU-19, 2-(4-Chlorophenyl)-N-(4-methylbenzyl)-N-(1-cyclobutylpiperidin-4-yl)-acetamide]	>10 mg/kg
COc1ccc(CC(=O)N(Cc2ccc(C)cc2)C2CCN(C3CCC3)CC2)cc1 [Compound 47AKU-20, 2-(4-Methoxyphenyl)-N-(4-methylbenzyl)-N-(1-cyclobutylpiperidin-4-yl)acetamide]	≦10 mg/kg
COc1ccc(CC(=O)N(Cc2ccc(C)cc2)C2CC3CCC(C2)N3C)cc1 (stereo not drawn) [Compound 47AKU-21, 2-(4-Methoxyphenyl)-N-(4-methylbenzyl)-N-(tropin-4-yl)acetamide]	>10 mg/kg
Cc1ccc(CN(C(=O)NCc2ccccc2)C2CCN(C)CC2)cc1 [Compound 47AKU-22, N-(4-Methylbenzyl)-N-(1-methylpiperidin-4-yl)-N′-benzyl-carbamide]	≦10 mg/kg
CN1CCC(N(CCc2ccccc2)C(=O)NCc2ccccc2)CC1 [Compound 47AKU-25, N-Phenethyl-N-(1-methylpiperidin-4-yl)-N′-benzyl-carbamide]	>10 mg/kg
COc1ccc(CNC(=O)N(Cc2ccc(C)cc2)C2CCN(C)CC2)cc1 [Compound 47AKU-44, N-(4-Methylbenzyl)-N-(1-methylpiperidin-4-yl)-′N′-(4-methoxybenzyl)-carbamide]	≦10 mg/kg
COc1ccc(CC(=O)N(Cc2ccc(C)cc2)C2CCN(C(C)(C)C)CC2)cc1 [Compound 47AKU-49, 2-(4-Methoxyphenyl)-N-(4-methylbenzyl)-N-(1-t-butylpiperidin-4-yl)-acetamide]	≦10 mg/kg
CN1CCC(N(Cc2ccc(F)cc2)C(=O)Cc2ccc(F)cc2)CC1 [Compound 50ELH6, 2-(4-Fluorophenyl)-N-(4-fluorobenzyl)-N-(1-methylpiperidin-4-yl)acetamide]	≦10 mg/kg
COc1ccc(CC(=O)N(CCCc2ccccc2)C2CCN(C)CC2)cc1 [Compound 50ELH65, 2-(4-Methoxyphenyl)-N-(3-phenyl-1-propyl)-N-(1-methylpiperidin-4-yl)acetamide]	≦10 mg/kg
COc1ccc(CC(=O)N(CCc2ccc(C)cc2)C2CCN(C)CC2)cc1 [Compound 50ELH68]	≦10 mg/kg
COc1ccc(CC(=O)N(CCc2ccc(F)cc2)C2CCN(C)CC2)cc1 [Compound 50ELH93A, 2-(4-Methoxyphenyl)-N-(2-4-(fluorophenyl)ethyl)-N-(1-methylpiperidin-4-yl)acetamide]	≦10 mg/kg
CCOc1ccc(CC(=O)N(Cc2ccc(C)cc2)C2CCN(C)CC2)cc1 [Compound 58AKU-4, 2-(4-Ethoxyphenyl)-N-(4-methylbenzyl)-N-(1-methylpiperidin-4-yl)acetamide]	≦10 mg/kg
CCCCOc1ccc(CC(=O)N(Cc2ccc(C)cc2)C2CCN(C)CC2)cc1 [Compound 58AKU-5, 2-(4-Butoxyphenyl)-N-(4-methylbenzyl)-N-(1-methylpiperidin-4-yl)acetamide]	≦1 mg/kg
Cc1ccc(CN(C(=O)Cc2ccc(OC(C)C)cc2)C2CCN(C)CC2)cc1 [Compound 58AKU-6, 2-(4-i-Propoxyphenyl)-N-(4-methylbenzyl)-N-(1-methylpiperidin-4-yl)acetamide]	≦10 mg/kg
CCOc1ccc(CC(=O)N(CCc2ccc(F)cc2)C2CCN(C)CC2)cc1 [Compound 63ELH20, 2-(4-ethoxyphenyl)-N-[2-(4-fluorophenyl)ethyl]-N-(1-methylpiperidin-4-yl)acetamide]	≦10 mg/kg
